From article PMC6132687, “Stem cells are the most sensitive screening tool to identify toxicity of GATA4-targeted novel small-molecule compounds” (Archives of Toxicology, 2018)

Tests used:
[1] = tested on: stem cell and progenitor cell viability; assay: Toxicity classification from MTT screening across cell types; conditions: based on effects on stem cell and progenitor cell viability
Description: The cells were exposed to the test compounds for 24 h and cytotoxicity was quantified with MTT and LDH assays as described previously (Talman et al. [2011]). For the determination of cell membrane integrity, 50 µl of medium from each well was transferred onto a new 96-well plate followed by addition of 50 µl of substrate solution containing 1.3 mM β-nicotinamide adenine dinucleotide, 660 µM iodonitrotetrazolium, 54 mM L(+)-lactic acid, 280 µM phenazine methosulphate and 0.2 M Tris–HCl (pH 8.0). After a 30-min incubation, the reaction was stopped by adding 50 µl of 1 M acetic acid to each well and absorbance was measured at 490 nm using Victor2 plate reader (PerkinElmer, Turku, Finland). Spontaneous LDH release was measured from untreated cells, maximal LDH release from cells lysed with 0.9% Triton X-100 and background absorbance was measured from wells without cells. After background extraction, cytotoxicity was calculated as follows: cytotoxicity (%) = [(sample − spontaneous LDH release)/(maximal LDH release − spontaneous LDH release)] × 100. For quantification of metabolic activity, 3-(4,5-dimethylthiazol-2-yl)-2,5-diphenyltetrazolium bromide (MTT) was added to the cells at a final concentration of 0.5 mg/ml followed by 2 h incubation in cell culture conditions. The medium was then aspirated and formazan crystals were solubilized in DMSO. Absorbance was measured at 550 nm and absorbance at 650 nm was subtracted as background.
When comparing the effects of different compounds within each individual cell type, the compounds can be grouped into two main classes: toxic (3i-1000, 3i-1120, 3i-1148 and 3i-1229) and non-toxic (3i-1047, 3i-1051, 3i-1165, and 3i-1228) compounds. Based on the hiPSC toxicity data, 3i-1148 can be considered as the most toxic compound with an IC50 of 0.30 µM (Fig. 5b).

[2] = tested on: GATA4–NKX2-5 transcriptional synergy; assay: Luciferase reporter assay of GATA4–NKX2-5 synergistic gene activation in COS-1 cells; format: cell-based, African green monkey; conditions: 24 h treatment, normalized to DMSO
Description: COS-1 cells were used to investigate the compound effects on GATA4–NKX2-5 synergistic gene activation using a luciferase reporter assay (Kinnunen et al. [2015]). Toxicity profiling was carried out in eight cell types: the H9c2 myoblast cell line, NRVCs, CFs, mESCs, MEFs, mESC derivatives from day 5 embryoid bodies (D5EBs), hiPSCs and hiPSC-CMs. All cell cultures were maintained at 37 °C in a humidified atmosphere of 5% carbon dioxide (CO2) and the regular growth medium was used for compound exposures. Cell culture methods and cardiomyocyte differentiation from human pluripotent stem cells are described in Supplementary Information.
The empty expression plasmid MT2 (pMT2) and mouse Gata4 expressing pMT2-Gata4 plasmids were gifts from D. B. Wilson (Department of Pediatrics, St. Louis Children’s Hospital) (Arceci et al. [1993]). The luciferase reporter plasmid pGL3-3xHA containing three Nkx2-5 high-affinity binding sites has been described previously (Kinnunen et al. [2015]). To create mouse Nkx2-5 expressing pMT2-Nkx2-5, the cDNA was cloned from pFLCI-Nkx2-5 (clone D330001C20, Imagenes), which was a kind gift from R. Kerkelä (University of Oulu, Finland), with primers containing the EcoRI restriction site (forward: 5′-[…]-3′ and reverse 5′-[…]-3′) and ligated to pMT2 EcoRI site. The correct clone was identified by digestion with specific restriction enzymes and the sequence was verified by DNA sequencing (DNA Sequencing and Genomics Laboratory, Institute of Biotechnology, University of Helsinki, Finland).
COS-1 cells grown on 96-well plates were transfected with the luciferase reporter plasmid pGL3-3xHA (100 ng/well) and equal amounts of expression vectors pMT2-Gata4 and pMT2-Nkx2-5 (total of 50 ng/well) using Fugene 6 (Promega) at a reagent:DNA ratio of 3:1. Cells transfected with either pMT2, pMT2-Gata4 or pMT2-Nkx2-5 were used to confirm synergistic transactivation of the reporter gene in all experiments. After 6 h of transfection, the cells were treated with compounds or vehicle (0.1% dimethyl sulfoxide, DMSO) and the luminescence was measured 24 h later using Neolite Reporter Gene Assay System (PerkinElmer, Turku, Finland) according to manufacturer’s instructions and Victor2 plate reader (PerkinElmer, Turku, Finland). Each compound was tested in three technical replicates in at least two independent experiments.
A luciferase reporter assay with an artificial promoter containing three high-affinity binding sites for NKX2-5 was used to evaluate the effects of the compounds on GATA4–NKX2-5 transcriptional synergy (Kinnunen et al. [2015]). We have previously shown that while GATA4 alone induces only minimal activation of this promoter, it strongly potentiates NKX2-5-mediated transactivation (Kinnunen et al. [2015]; Välimäki et al. [2017]).

| Compound | toxicity class (toxic / non-toxic) [1] | effect on GATA4- and NKX2-5-induced gene activation (luciferase reporter activity) [2] |
| --- | --- | --- |
| CCN(CC)c1ccc(NC(=O)c2c(-n3cccc3)sc(C)c2C)cc1 [3i-1165] | non-toxic | only a weak effect |
| CCN(CC)c1ccc(NC(=O)c2c(-c3coc(C)n3)noc2C)cc1 [3i-1228] | non-toxic | ineffective |
| CCN(CC)c1ccc(NC(=O)c2ccsc2)cc1 [3i-1051] | non-toxic | ineffective |
